Source: publication PMC12667295, “A surrogate barrier model for high-throughput blood-brain barrier permeability prediction: integrating LLC-PK1-MOCK/MDR1 Cells and lysosomal trapping correction” (Drug Delivery, 2025)
Where two headings read alike, the source gives them in different places.

Experiments:
[1] = in vitro; settings: pig, LLC-PK1 MOCK cell monolayer (Transwell), pH 7.4
Procedure: (§3) Cells were passaged at 80−90% confluence (every 2−3 days) using trypsin-EDTA solution. […] The culture medium was replaced every other day, including 200 µL culture medium in the apical and 850 µL cell culture medium in the basolateral side. LLC-PK1 MOCK cells were used at passages of 3−30. LLC-PK1-MDR1 cells were cultured and passaged in the same manner as LLC-PK1 cells except at the density of 1 × 10^4 cells per well. LLC-PK1-MDR1 cells were used at passages of 3−25. For LLC-PK1 MOCK cells and LLC-PK1-MDR1 cells, the experiments were performed on the 4th and 7th day after seeding.
(§4) Samples were collected from the donor well at the start of the incubation (50 µL) as C0, and from the donor and receiver wells at the end of the incubation (50 µL). All samples were stored at - 40 °C for LC-MS/MS analysis.
(§5) Bidirectional transport experiments. […] The transwell experiments were conducted following above-mentioned procedure. […] When the recovery rate of the tested drug is below 80%, the possibility of intracellular accumulation should be considered. The polycarbonate (PC) membrane where cells are grown should be carefully peeled off from the cell culture medium and placed in 100 µL of HBSS buffer solution. […] The process was carried out on ice to prevent heat-induced degradation, applying a power in the range of 300 W for a total duration of 20 minutes. Thereafter, a quantitative analysis of the intracellular drug was conducted, and the drug recovery rate was recalculated based on this analysis.
(§6) The apparent permeability coefficient (Papp, cm/s) was calculated for each transport direction, A-B and B-A, using the following equation: Papp=dQ/dt×1/A×C0 where dQ/dt is the permeation rate (µmol/s), A is the surface area of the insert (0.33 cm^2, Corning), and C0 is the initial donor concentration (µM).
(§7) The efflux ratio (ER) is calculated as the ratio of Papp (B-A)/Papp (A-B). Recovery=TRcumrf+Cdf×VD/Cdi×VD×100% Where TRcumrf is the cumulative transported mass in the receiver chamber at the end of the incubation (nmol), Cdf is the concentration of the drug in the donor chamber at the end of the incubation (μM), VD is the volume of the donor chamber (mL), and Cdi is the initial concentration of the drug in the donor chamber (μM).
(§8) The method of the bidirectional transport experiment was the same as before.

[2] = tested on: P-gp (human MDR1); experiment: Bidirectional transport across LLC-PK1-MDR1 monolayer stably expressing human MDR1 (P-gp) (Transwell); settings: pig;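 note: 2 h incubation at 37 °C, receiver HBSS with 10 mM Hepes plus 1% BSA, LC-MS/MS of donor and receiver, recovery as receiver plus donor amount over initial donor amount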
Procedure: (§9) The overexpression and functional activity of P-glycoprotein (P-gp) in the LLC-PK1-MDR1 cells were rigorously validated through multiple methods.
as §3
(§10) Monitoring permeability of positive control drugs. […] Samples were collected from the donor well at the start of the incubation (50 µL) as C0, and from the donor and receiver wells at the end of the incubation (50 µL). All samples were stored at - 40 °C for LC-MS/MS analysis.
as §5, §6, §7, §8

[3] = parameters: method as in Internal data; settings: footnote a; ref Internal data; cited from earlier work
[4] = tested on: P-gp (human MDR1); experiment: in vitro; settings: pig, LLC-PK1, pH 7.4
Procedure: as §9, §3, §10, §5, §6, §7, §8

[5] = in vivo; settings: rat
Description: In vivo unbound brain distribution data (Kp,uu,Brain) for 16 drugs and total brain distribution data (Kp,Brain) for 16 drugs was acquired from literature. […] For each tested compound, fifteen rats were randomly divided into five groups of three rats each. […] The time of execution of the rats by CO2 inhalation after administration was optimized according to the in vivo elimination rate to achieve five concentrations of different time points. After the rats were euthanized, cardiac puncture was performed immediately to remove as much whole blood as possible (~7 ml) from the systemic circulation (Quantitatively aliquot 0.2 ml of whole blood for the determination of drug concentration in plasma). Afterwards, the brain tissue was collected immediately and rinsed repeatedly with ice-cold saline 3 times. Then, the surface saline was blotted dry with clean filter paper to remove as much residual drug in the blood vessels as possible. Plasma samples were prepared by centrifugation of the blood samples at 2,500 g for 10 minutes at 4 °C. All brain samples were homogenized by adding 4-fold volume water. All samples were stored at -40 °C before LC-MS/MS analysis. […] The brain tissue partition coefficient (Kp, brain) and brain-to-plasma unbound drug partition ratio (Kp,uu, brain) are calculated according to the following formulas, respectively: Kp,brain=AUC(0−∞,brain)/AUC(0−∞,plasma)Kp,uu,brain=Kp,brain×(fu,tissue/fu,plasma)
Free brain-to-plasma distribution coefficients (Kp,uu,brain) of 41 drugs. Brain distribution coefficients (Kp,uu,brain) were calculated for 41 drugs. […] Plasma and brain concentration-time profiles were generated, and AUC(0-t) values for both matrices were calculated using WinNolin 8.1. Kp,brain was derived as the ratio of brain-to-plasma AUC(0-t).
Kp,uu,brain values were computed by normalizing Kp,brain to unbound fractions (fu,plasma and fu,brain).

[6] = cited from earlier work
[7] = Bidirectional transport across LLC-PK1 MOCK monolayer (Transwell); settings: pig; for Papp A→B at 2 h, 2 µM: LLC-PK1 MOCK;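 for all read-outs here: compound quantified by LC-MS/MS in donor and receiver wells, efflux ratio as B-A over A-B Papp, recovery relative to initial donor amount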
Procedure: as §3, §4, §5, §6, §7, §8

[8] = cited from earlier work; remark: listed apart in the source
[9] = tested on: LLC-PK1-MDR1 cells; experiment: Bidirectional transport across LLC-PK1-MDR1 monolayer stably expressing human MDR1 (P-gp) (Transwell); settings: LLC-PK1-MDR1, positive control drugs run with each batch (n = 15), 2 µM;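 note: 2 h incubation at 37 °C, receiver HBSS with 10 mM Hepes plus 1% BSA, LC-MS/MS of donor and receiver, recovery as receiver plus donor amount over initial donor amount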
Procedure: as §9, §3, §10, §5, §6, §7, §8

[10] = in vitro; settings: rat, brain homogenate
Procedure: (§1) Stocks (10 mM) of test compounds were diluted to 5 μM with plasma or tissue homogenate and dialyzed at 37 °C for 6 hours in a shaking incubator. After incubation aliquots of both plasma or tissue homogenate and buffer from the device were taken and added to equal volumes of blank buffer and plasma or tissue homogenate respectively. Samples were then diluted in acetonitrile containing an internal standard prior to centrifugation and analysis of the supernatants by LC-MS/MS. The fu, plasma was calculated using Equation 1:(1) fu,plasma=Concbuffer chamber/Concsample chamber
Rat fraction unbound in brain (fu, brain) was determined as the ratio of concentration in buffer to that in brain.
(§2) Unbound fractions of test drugs in plasma (fu,plasma) and brain tissue (fu,brain). For compounds with existing rat plasma or brain protein-binding data from literature or internal studies, values were directly adopted.

[11] = tested on: LLC-PK1 MOCK cells; experiment: Bidirectional transport across LLC-PK1 MOCK monolayer (Transwell); settings: LLC-PK1 MOCK, 2 µM, 2 h, mean ± s, n = 3; BLQ = below 2 nM;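 note: compound quantified by LC-MS/MS in donor and receiver wells, efflux ratio as B-A over A-B Papp, recovery relative to initial donor amount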
Procedure: as §3, §4, §5, §6, §7, §8

[12] = in vitro; settings: rat, plasma
Procedure: as §1, §2

[13] = LLC-PK1, pH 7.4, Papp A-B, 2 h, mean ± s, n = 3, BLQ = below 2 nM
[14] = LLC-PK1, pH 7.4, ER, LLC-PK1-MDR1, Papp (B-A)/Papp (A-B)
[15] = LLC-PK1, pH 7.4, Papp A-B, LLC-PK1-MDR1, 2 µM, 2 h, mean ± s, n = 3

SMILES	recovery at 2 h, 2 µM [1]	Papp A→B at 2 h, 2 µM ([2]; LLC-PK1, pH 7.4)	Papp B→A at 2 h, 2 µM ([2]; LLC-PK1, pH 7.4)	recovery at 2 h, 2 µM [4]	Kp uu [5]	Kp, Brain ([6]; footnote a, ref Internal data)	Papp B→A at 2 h, 2 µM ([7]; LLC-PK1, pH 7.4)	Papp A→B at 2 h, 2 µM [7, 13]	fraction unbound at 6 h, 5 µM [10]	Papp A-B [11]	efflux ratio at 2 h, 2 µM [2, 14]	Papp A→B at 2 h, 2 µM [2, 15]	further results
COc1ccc2[nH]cc(CCNC(C)=O)c2c1 [Melatonin]	105 ± 2.95%	208 ± 14.3 nm/s	217 ± 10.8 nm/s	93.1 ± 1.67%	0.575	0.5^a	206 ± 9.2 nm/s	224 ± 5.1 nm/s					efflux ratio at 2 h, 2 µM ([2]; LLC-PK1, pH 7.4): 1.02; Protein binding in brain tissue [3]: 30.0^a %; efflux ratio at 2 h, 2 µM ([7]; LLC-PK1, pH 7.4): 0.92; Protein binding in plasma ([8]; ref Le Quellec et al. [1994]): 33.0%
COCCc1ccc(OCC(O)CNC(C)C)cc1 (centres unmarked) [Metoprolol]	114 ± 8.95%			116 ± 1.08%			240 ± 13.9 nm/s	301 ± 38.8 nm/s					Papp A-B [9]: exceeded 20 × 10^−⁶ cm/s; Papp A→B at 2 h, 2 µM ([7]; LLC-PK1, pH 7.4, Papp (A-B), positive control drugs run with each batch (n = 15)): > 200 nm/s
COc1cccc2c1C(=O)c1c(O)c3c(c(O)c1C2=O)C[C@@](O)(C(=O)CO)C[C@@H]3O[C@H]1C[C@H](N)[C@H](O)[C@H](C)O1 [Doxorubicin]		9.5 ± 1.6 nm/s	34.7 ± 3.9 nm/s				0.9 ± 0.1 nm/s		< 0.01	BLQ			Kp uu ([5]; SD, iv, 1 mg/kg): < 0.012; Kp ([5]; SD, iv, 1 mg/kg, Kp, Brain): 0.291; Kp ([5]; SD, iv, 1 mg/kg, Kp,uu,Brian): 0.012; Protein binding in plasma ([8]; footnote b, species not stated, ref https://go.drugbank.com): 75^b %
CC(C)(C)NCC(O)c1ccc(O)c(CO)c1 (centres unmarked) [Salbutamol]	98.1 ± 2.21%		26.6 ± 2.1 nm/s	98.2 ± 0.36%	0.01	0.021^a	2.1 ± 0.2 nm/s		0.315	BLQ	1.42	18.8 ± 3.5 nm/s	fraction unbound at 6 h, 5 µM [12]: 0.78
CN(Cc1cnc2nc(N)nc(N)c2n1)c1ccc(C(=O)N[C@@H](CCC(=O)O)C(=O)O)cc1 [Methotrexate]	85.8 ± 4.58%		4.5 ± 0.5 nm/s	83.3 ± 5.67%						BLQ	0.81	5.5 ± 1 nm/s	Kp, Brain ([6]; ref Fridén [2009]): 0.004; Kp,uu,Brian ([6]; ref Fridén [2009]): 0.006; Papp B-A [11]: BLQ
